Measurements published in patent US11980607B2, “Methods of treating malignant lymphoproliferative disorders” (Actuate Therapeutics Inc., priority 2018, dated 2024).

Assays:
[1] = test system: SUDHL-4, KPUM-UH1, Karpas 22, or TMD8 lymphoma cells; assay: cells; assay type: cell-based
Protocol: FIGS. 1A-1E show the viability and proliferation of lymphoma cells with 9-ING-41 treatment. 10,000 cells (SUDHL-4 (FIG. 1B), KPUM-UH1 (FIG. 1C), Karpas 422 (FIG. 1D), TMD8 (FIG. 1E)) per 96-well plate well were left untreated or treated with 1 μM 9-ING-41 in triplicate, and the number of cells on days 1, 3, 5 and 7 were calculated using the MTS assay. Briefly, 20 μL of MTS reagent was added to cells and incubated for 2 hours and, the absorbance at 490 nm (A490) was read using a Biotek plate reader. Absorbance at OD=490 nm increases proportionally to cell density. Error bars represent std. deviation between replicates.
Daudi (Burkitt) and SUDHL-4 (germinal center (GC) diffuse large B-cell lymphoma (DLBCL)) cell lines were purchased from […]. (ATCC). KPUM-UH1 (double hit DLBCL) cells were obtained from Junya Kuroda, Kyoto Prefectural University of Medicine, Kyoto, Japan. All cell lines were cultured aseptically and maintained in a water-jacketed incubator (Thermo-Forma) at 37° C. with 5% CO2 and fed with RPMI-1640 (Corning) containing […] glutamine, 10% FBS (Sigma), and antibiotic and antimycotic reagent (Gemini Bioproducts; final concentrations—100 units/mL penicillin G, 100 μg/mL streptomycin sulfate, and 250 ng/mL amphotericin B). Karpas 422 (GC-DLBCL) cells was purchased from Sigma. […] All cell numbers for assays were quantified using a TC20 automated cell counter (BioRad). […]
Cell viability at day 3 and proliferation over the course of 7 days were measured after treating cells with varying concentrations of 9-ING-41 using the Promega CellTiter 96® AQueous One Solution Cell Proliferation Assay reagent (MTS) in accordance with the manufacturer's instructions. […] The absorbance at 490 nm (A490) was determined using a Powerwave XS plate reader (Biotek).
All lymphoma cell lines used in this study express active GSK-3β. SUDHL-4, KPUM-UH1, […], or TMD8 lymphoma cells were plated, and cell numbers on days 1, 3, 5 and 7 were measured using the MTS assay. […]

[2] = test system: NF-κB, DNA damage and apoptotic pathways in lymphoma cell lines; assay: Luminex analysis of NF-κB, DNA damage and apoptotic pathway signaling; assay type: cell-based; details: 1 μM, 48 hours
Source text: Signaling changes in NF-κB [MILLIPLEXMAP NF-κB Signaling Magnetic Bead Kit 6-plex Kit, EMD Millipore, analytes: c-MYC, FADD (Ser194), IκBα (Ser32), IKKα/β (Ser177/Ser181), NF-κB (Ser536), TNFR1], DNA damage [MILLIPLEX MAP DNA Damage/Genotoxicity Magnetic Bead Panel, EMD Millipore, analytes: ATR (total), Chk1 (Ser345), Chk2 (Thr68), H2A.X (Ser139), MDM2 (total), p21 (Total), p53 (Ser15)], and apoptotic pathways [Bio-plex pro RBM apoptosis panel 2 and 3, Bio-Rad, analytes: Bad, Bax/Bcl-2 dimer, Bcl-xL, Bim, Mcl-1, active caspase 3, Bcl-xL/Bak dimer, Mcl-1/Bak dimer, survivin] associated with 1 μM 9-ING-41 treatment for 48 hours as compared to no-treatment controls were determined using Luminex multiplex technology with a FLEXMAP 3D instrument, as per manufacturer instructions. Cells were lysed in MILLIPLEX MAP Lysis buffer supplemented with protease inhibitor cocktail (Sigma) and phosphatase inhibitor cocktails 2 and 3 (Sigma) and, after BCA protein determination, 15 μg of protein was added to each well. All samples were run in duplicate and changes in MFI or absolute quantity between 9-ING-41-treated cells and nontreated control were analyzed, and an unpaired t-test was performed to determine statistical significance.

[3] = test system: purified normal unstimulated T lymphocytes or peripheral blood mononuclear cells; assay: Apoptosis assay in normal cells; assay type: cell-based, human; details: even at 10.0 μM 9-ING-41
Protocol: (§1) Unstimulated peripheral blood B- and T-lymphocytes isolated from a healthy donor were used as normal control. Pro-apoptotic effect of the GSK3 inhibitor 9-ING-41 in various MCL and TCL lines (A) and DLBCL lines (B). (C) Cell proliferation profile of various lymphoma cell lines upon treatment with 9-ING-41. Results (A-C) are from 3 independent experiments.
(§2) Cells were seeded at 5×10^5 cells/well in 24 well plates, and incubated with 9-ING-41 at indicated concentrations for 48 hours. The cells were then stained with FITC conjugated Annexin V (Life Technologies) and Propidium Iodide followed by analysis on a BD FACS Calibur flow cytometer.
(§3) Given that both GSK3α and GSK3β are overexpressed in lymphoma cells, and that both enzymes are implicated in multiple signaling pathways critical for cell functions, whether GSK3α and GSK3β are functionally supporting the survival and proliferation of lymphoma cells was examined. […] The inhibitory concentrations of 9-ING-41 at half of the maximal effect (IC50) on cell survival of various lymphoma cell lines was calculated (Table 1).

TCL and MCL lines = assay: Apoptosis assay in TCL and MCL lines; assay type: cell-based, human; details: low doses, 48 hours
Protocol: as §1, §2, §3

[4] = test system: GSK3β localization in Jeko cells; assay: Immunofluorescence staining for GSK3β localization; assay type: cell-based, human; details: 9-ING-41 treated Jeko cells
Protocol: (B) A close-up (magnification) image of that shown in (A). […] (L) A close-up image of a mitotic cell shown in (K). (M) An overlay image showing the microtubule structure by α-tubulin (red) staining and DNA (in blue). (N) A close-up image of that shown in (M). […] (R) A close-up image of a representative mitotic cell shown in (Q). All other immunostainings of GSK3β and α-Tubulin on cytospin preparations of lymphoma cells were fixed with 4% paraformaldehyde in PBS for 15 min at room temperature followed by permeabilization and the same staining steps as above. The cells were analyzed and imaged on a conventional Zeiss microscope or a Zeiss LSR 780 confocal microscope. To determine the intracellular localization of GSK3β in mitotic cells, GSK3β localization in normal mitotic Jeko cells was analyzed. […] The localization of GSK3β in 9-ING-41 treated Jeko cells (FIG. 8Q-R) was determined.

[5] = test system: Diffuse large B-cell lymphoma; assay: Treatment of Diffuse Large B-cell Lymphoma in a human; assay type: in vivo; details: 1 mg/kg per day, six 21 day cycles
Protocol: A human suffering from Diffuse large B-cell lymphoma is administered 1 mg/kg per day of 9-ING-41 for six 21 day cycles. After treatment, the human's DLBCL is in remission.

[6] = test system: T-cell lymphoma (non-Hodgkin's); assay: Treatment of T-Cell Lymphoma in a human; assay type: in vivo; details: 2 mg/kg per day, six 21 day cycles
Protocol: A human suffering from T-cell lymphoma (non-Hodgkin's) is administered 2 mg/kg per day of 9-ING-41 for six 21 day cycles. After treatment, the human's TCL is in remission.

Cn1cc(C2=C(c3coc4ccc(F)cc34)C(=O)NC2=O)c2cc3c(cc21)OCO3 [9-ING-41, 3-(5-Fluorobenzofuran-3-yl)-4-(5-methyl-5H-[1,3]dioxolo[4,5-f]indol-7-yl)pyrrole-2,5-dione]
Proliferation on day 7, relative to control ([1]; 1 μM 9-ING-41, day 7, all lymphoma cell lines, p<0.05): less than 30% | cytotoxicity at 1 µM ([1]; 72 h, read-out: Reduction of cell viability on day 3): 40 to 70% | Concentration at which a reduction in viability was seen ([1]; tested 0.1, 0.5, 1, 5 and 10 μM): ≥ 0.5 µM | Total c-MYC levels ([2]; Karpas 422 and TMD8 cell lines): significant reduction | DNA damage signaling, p-H2A.X (Ser139) ([2]; SUDHL-4 and Karpas 422 cell lines, p<0.05): increased | phospho-p53 (Ser15) ([2]; SUDHL-4 and TMD8 cells): significant increase | Reduction in Bcl-x1/Bak dimer expression ([2]; all cell lines except TMD8, p<0.05): ~1.5 fold | Reduction in Mcl-1/Bak dimers ([2]; all lymphoma cell lines except KPUM-UH1, p<0.05): ~2 fold | Active caspase 3 ([2]; all lymphoma cell lines except TMD8): increase in active caspase 3 | Reduction in survivin ([2]; all lymphoma cell lines except TMD8, p<0.05): ~2 fold | Apoptosis in normal cells [3]: no significant apoptosis | Apoptosis in TCL and MCL lines (TCL and MCL lines): induced apoptosis | Effect on localization of GSK3β [4]: did not alter the localization of GSK3β | Outcome after treatment [5]: in remission | Outcome after treatment [6]: in remission
